This is an account of results in US6713051B2, “Antiperspirant or deodorant compositions” (Unilever Home & Personal Care USA division of Conopco, Inc., priority 2001, dated 2004).

This test addresses T1, human PPARα (Homo sapiens, UniProt Q07869).
T1 construct: The coding region of a human PPARα cDNA was inserted downstream of the CMV promoter; expressed in transfected cells; host or cells: Cos-7 cells, transient transfection (pcDNA3.1(−)-PPARα, pRSV-RXRα, 3xPPRE-TK-luc reporter, pRL-TK)
T1 sequence (Q07869 1-468): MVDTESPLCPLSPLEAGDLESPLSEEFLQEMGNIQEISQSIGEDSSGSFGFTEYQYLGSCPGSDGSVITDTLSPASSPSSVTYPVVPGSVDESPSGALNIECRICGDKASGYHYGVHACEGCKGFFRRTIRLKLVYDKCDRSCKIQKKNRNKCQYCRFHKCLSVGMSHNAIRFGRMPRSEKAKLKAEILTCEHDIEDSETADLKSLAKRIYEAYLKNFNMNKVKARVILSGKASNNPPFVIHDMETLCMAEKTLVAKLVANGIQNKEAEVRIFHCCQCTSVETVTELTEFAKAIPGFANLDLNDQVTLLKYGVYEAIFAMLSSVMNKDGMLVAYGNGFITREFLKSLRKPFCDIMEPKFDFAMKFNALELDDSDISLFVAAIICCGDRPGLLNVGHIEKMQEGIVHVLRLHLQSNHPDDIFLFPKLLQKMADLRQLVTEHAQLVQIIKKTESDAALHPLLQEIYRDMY
T1 sequence (P19793 1-462 partner): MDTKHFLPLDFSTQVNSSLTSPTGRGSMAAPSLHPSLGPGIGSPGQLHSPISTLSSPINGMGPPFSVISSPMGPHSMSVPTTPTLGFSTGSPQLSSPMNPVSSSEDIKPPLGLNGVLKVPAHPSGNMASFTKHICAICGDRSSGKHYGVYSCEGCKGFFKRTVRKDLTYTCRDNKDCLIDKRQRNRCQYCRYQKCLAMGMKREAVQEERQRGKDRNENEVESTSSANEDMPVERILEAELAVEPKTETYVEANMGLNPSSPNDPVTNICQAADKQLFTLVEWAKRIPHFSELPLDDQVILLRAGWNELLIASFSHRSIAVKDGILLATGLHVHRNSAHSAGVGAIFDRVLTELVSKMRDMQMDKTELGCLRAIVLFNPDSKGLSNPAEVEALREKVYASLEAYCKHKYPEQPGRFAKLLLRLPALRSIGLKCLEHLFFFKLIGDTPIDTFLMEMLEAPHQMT
The test can be described thus: PPARα reporter gene assay (firefly luciferase, transiently transfected Cos-7 cells). Format: cell-based.

On to `CC\C=C/C=C/C=C/C=C\CCCCCCCC(=O)O` [cis parinaric acid, cis-parinaric acid], for which the “Result at (lowest administration level at which super or MS activity was achieved)” value was determined as 25 μm. Moreover, the “Result (superior activity class achieved)” value (class reached) was “super (superior activity [super] (50% higher—at least 2.25 times PPARα activation))”. For the same compound, the “Pass at (lowest tested administration level at which the test material passed)” value (pass = activation greater than oleic acid at 100 μM, commonly >1.57 times vehicle control, 24 h treatment) is reported as 10 μm.
